Data reported in US20130071340A1, “POLYOL PARTIAL ESTERS FOR USE IN COSMETICS” (priority 2010, published 2013).
Read-outs that look alike come from different tables or passages of the source.

Columns and labels:
[1] = UV filter solubility in the emollients; format: physicochemical; conditions: maximum soluble amount of ethylhexyl triazone (Uvinul T 150) in the emollient at 22 °C
Description: This operation was repeated until the maximum soluble amount of the UV filter was exceeded. At higher concentrations, often a longer stirring time of several hours is necessary for complete dissolution. When in this way the maximum concentration had been determined approximately, for fine determination the concentration range was repeated around this maximum concentration with smaller initial weighed amounts of the UV filter.

Molecule	Solubility in wt % in the test emollients (test emollient: Isohexadecane)	Solubility in wt % in the test emollients (test emollient: Mineral oil) [% wt %]	Solubility in wt % in the test emollients (test emollient: Octyldodecanol)	Solubility in wt % in the test emollients (test emollient: Oleyl erucate) [% wt %]	UV filter solubility: Ethylhexyl triazone [1] [%]
CCCCCCCC(=O)OCC(O)CO (centres unmarked) [Glyceryl monocaprylate]	at 75% solid,	<5	at 75% solid,	<50	
PPG-15 stearyl ether					7.0
